Data reported in patent US20030060481A1 (priority 1999, published 2003).

What was measured:
[1] = system: Wistar, adult, male, rats; assay: Induction of status epilepticus by systemic pilocarpine; assay type: in vivo; conditions: pilocarpine 320 mg/Kg intraperitoneal
[2] = system: kainate model of epilepsy; assay: Onset of spontaneous recurrent seizures in the kainate model of epilepsy

Structure (SMILES)	Latency for the onset of status epilepticus after injection [1] [min]	Effect on onset of spontaneous recurrent seizures (in words) [2]
CC[C@@H]1C(=O)OC[C@@H]1Cc1cncn1C [pilocarpine]	19 ± 5	
CN1[C@@H]2C[C@@H](OC(=O)[C@H](CO)c3ccccc3)C[C@H]1[C@@H]1O[C@@H]12 [scopolamine]		retard or even suppress the onset of spontaneous recurrent seizures
